The values below come from patent publication US20240261274A1, “TREATMENT OF MYC-DRIVEN CANCERS WITH GSPT1 DEGRADERS” (MONTE ROSA THERAPEUTICS, INC., priority 2021, published 2024).

Each structure is given as a SMILES string.

The assay relates to NSCLC cell lines. Kind of assay: Viability assay, 72 hr CellTiter Glo, NSCLC cell line panel (Compound 345). In kind it is cell-based. Conditions: panel of NSCLC cell lines. The method, then: EC50 scores for Compound 345 were measured in a panel of NSCLC cell lines. Each cell line was scored for NSCLC biomarkers and EC50 values were plotted against NSCLC biomarker score. Results of this experiment are shown in the scatter plot of FIG. 11A. High N-Myc expressing cell lines were enriched in the lower right quadrant of the scatterplot, indicating high NSCLC biomarker scores and high sensitivity to Compound 345.
Viability assay: Compound 345 was tested in a panel of 156 lung cancer cell lines (including non small cell lung cancer (NSCLC) and small cell lung cancer (SCLC) cell lines and 46 lymphoma cell lines using a 72 hr CellTiter Glo assay format. Cells were sub-cultured as recommended by the providers (ATCC, DSMZ) and incubated at 37° C., 5% CO2. All cells were authenticated and confirmed by Short Tandem Repeat (STR) profiling. Briefly, each lung cancer cell line was preferentially seeded in 384-well plates (100 μL/well) at a density previously determined to be in log growth phase 72 hour post-seeding (typically in the 400-2400 cells/well range). […] Cell viability was assessed using the CellTiter-Glo® 2.0 Assay as recommended by the Manufacturer (Promega, Cat. No. G7558, Lot. No. 0000385738) and measurements performed on the EnSpire multimode plate reader (Perkin Elmer). […]
For orientation: In ATP-based viability assays light output follows the ATP content of the culture.

With `O=C1CCC(N2Cc3ccc(COC(=O)Nc4cc(OC(F)(F)F)ccc4F)cc3C2=O)C(=O)N1` (stereo not shown) [Compound 345, (2-(2,6-dioxopiperidin-3-yl)-3-oxoisoindolin-5-yl)methyl(2-fluoro-5-(trifluoromethoxy)phenyl)carbamate], the “cell viability in Myc-driven and non-Myc-driven NSCLC” value was “cell viability was significantly reduced in only Myc-driven NSCLC”.
